In ChEMBL document CHEMBL3091358, “Structures of human acetylcholinesterase bound to dihydrotanshinone I and territrem B show peripheral site flexibility” (ACS Med Chem Lett, 2013):

Key:
[1] = target: T1, Acetylcholinesterase (Homo sapiens, UniProt P22303); assay: Inhibition of human acetylcholinesterase
[2] = target: T1, Acetylcholinesterase; assay: Inhibition of acetylcholinesterase (unknown origin)

T1 sequence (P22303 whole entry): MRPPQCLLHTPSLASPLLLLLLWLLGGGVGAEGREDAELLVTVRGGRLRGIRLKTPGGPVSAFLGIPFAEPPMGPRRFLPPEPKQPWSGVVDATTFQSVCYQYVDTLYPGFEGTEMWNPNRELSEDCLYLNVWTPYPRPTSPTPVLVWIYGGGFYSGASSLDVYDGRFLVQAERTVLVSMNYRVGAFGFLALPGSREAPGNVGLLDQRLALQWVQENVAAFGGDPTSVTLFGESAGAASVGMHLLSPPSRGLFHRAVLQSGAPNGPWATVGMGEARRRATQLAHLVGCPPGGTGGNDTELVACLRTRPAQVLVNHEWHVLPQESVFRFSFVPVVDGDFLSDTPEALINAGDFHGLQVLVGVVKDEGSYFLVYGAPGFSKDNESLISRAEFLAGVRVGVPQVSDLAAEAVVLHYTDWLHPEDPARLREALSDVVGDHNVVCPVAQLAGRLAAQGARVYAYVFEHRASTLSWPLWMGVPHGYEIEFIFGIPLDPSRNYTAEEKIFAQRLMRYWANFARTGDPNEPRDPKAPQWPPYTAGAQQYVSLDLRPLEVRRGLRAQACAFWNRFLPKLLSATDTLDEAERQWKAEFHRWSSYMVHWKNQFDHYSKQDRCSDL

| Compound | Ki [1] [nM] | IC50 [2] [nM] |
| --- | --- | --- |
| Cc1cccc2c3c(ccc12)C1=C(C(=O)C3=O)[C@@H](C)CO1 [DIHYDROTANSHINONE I] | 600 | 1000 |
| Cc1coc2c1C(=O)C(=O)c1c-2ccc2c(C)cccc12 [TANSHINONE I] |  | > 50000 |
| Cc1coc2c1C(=O)C(=O)c1c-2ccc2c1CCCC2(C)C [TANSHINONE IIA] |  | > 140000 |
